For three compounds, Km, activity and Activity results are on record in ChEMBL document CHEMBL2074377, “Transport of glutathione prostaglandin A conjugates by the multidrug resistance protein 1” (FEBS Lett, 1997).

Holding throughout (format): functional, cell membranes, Membrane vesicle
Data set [1] addresses T1, Multidrug resistance-associated protein 1 (Homo sapiens, UniProt P33527). The data set can be described thus: TP_TRANSPORTER: uptake in membrane vesicles from MRP1-expressing DTY 168 yeast cells.
For data set [2], the target named is MRP1 (Multidrug resistance-associated protein 1) (Homo sapiens, UniProt P33527). Briefly: TP_TRANSPORTER: inhibition of EA-GS uptake (EA-GS: 0.2 uM, GA1: 10 uM, in the presence of GSH) in membrane vesicles from MRP1-expressing DTY 168 yeast cells. On the set-up: scale not given: the % may be the effect or the level left. As to conditions: probe EA-GS (0.2 uM), read-out: Activity.

Data set [3] addresses T1, Multidrug resistance-associated protein 1. The data set can be described thus: TP_TRANSPORTER: inhibition of EA-GS uptake (EA-GS: 0.2 uM,PGA2: 10 uM, in the presence of GSH) in membrane vesicles from MRP1-expressing DTY 168 yeast cells. Also noted: scale not given: the % may be the effect or the level left. As to conditions: dty 168, 10 µM.

T1 sequence (P33527 whole entry): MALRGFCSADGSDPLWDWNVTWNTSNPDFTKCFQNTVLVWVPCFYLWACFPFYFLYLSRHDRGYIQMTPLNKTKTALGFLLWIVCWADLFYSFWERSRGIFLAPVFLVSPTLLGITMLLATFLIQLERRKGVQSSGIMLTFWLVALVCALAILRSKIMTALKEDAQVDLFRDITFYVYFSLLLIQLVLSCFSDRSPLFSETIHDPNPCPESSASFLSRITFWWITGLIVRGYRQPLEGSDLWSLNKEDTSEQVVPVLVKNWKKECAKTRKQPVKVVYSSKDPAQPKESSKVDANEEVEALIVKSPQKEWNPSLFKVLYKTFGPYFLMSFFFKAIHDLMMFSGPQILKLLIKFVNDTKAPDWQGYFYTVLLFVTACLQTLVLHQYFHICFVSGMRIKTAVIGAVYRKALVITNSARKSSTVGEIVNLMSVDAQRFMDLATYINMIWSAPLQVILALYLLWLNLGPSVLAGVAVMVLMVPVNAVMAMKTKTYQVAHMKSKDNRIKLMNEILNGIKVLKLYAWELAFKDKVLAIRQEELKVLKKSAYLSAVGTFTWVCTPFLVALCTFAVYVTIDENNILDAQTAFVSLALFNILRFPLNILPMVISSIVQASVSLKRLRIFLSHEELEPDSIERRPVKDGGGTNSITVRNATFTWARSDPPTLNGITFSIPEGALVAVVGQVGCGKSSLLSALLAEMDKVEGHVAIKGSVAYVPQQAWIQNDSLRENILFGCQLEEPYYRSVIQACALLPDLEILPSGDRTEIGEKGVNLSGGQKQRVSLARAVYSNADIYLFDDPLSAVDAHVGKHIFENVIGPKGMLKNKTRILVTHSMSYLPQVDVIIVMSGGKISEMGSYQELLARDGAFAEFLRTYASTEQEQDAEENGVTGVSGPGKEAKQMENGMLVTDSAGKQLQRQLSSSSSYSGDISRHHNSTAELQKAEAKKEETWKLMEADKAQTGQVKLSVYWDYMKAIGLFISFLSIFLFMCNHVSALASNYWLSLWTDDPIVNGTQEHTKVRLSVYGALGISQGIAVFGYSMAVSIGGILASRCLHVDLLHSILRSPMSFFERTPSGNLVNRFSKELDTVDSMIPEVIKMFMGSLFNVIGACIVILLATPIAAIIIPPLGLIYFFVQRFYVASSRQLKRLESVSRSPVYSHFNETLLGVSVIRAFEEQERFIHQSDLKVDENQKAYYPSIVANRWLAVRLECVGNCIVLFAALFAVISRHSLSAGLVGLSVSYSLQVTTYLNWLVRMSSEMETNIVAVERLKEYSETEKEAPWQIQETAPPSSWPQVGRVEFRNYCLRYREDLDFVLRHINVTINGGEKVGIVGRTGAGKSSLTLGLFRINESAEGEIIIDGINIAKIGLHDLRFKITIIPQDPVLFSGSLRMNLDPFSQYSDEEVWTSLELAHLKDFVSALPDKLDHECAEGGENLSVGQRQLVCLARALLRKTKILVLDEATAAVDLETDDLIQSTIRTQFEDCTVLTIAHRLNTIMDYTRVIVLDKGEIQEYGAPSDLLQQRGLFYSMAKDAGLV
Chain of MRP1 (Multidrug resistance-associated protein 1) (P33527 whole entry): as above

Regarding `CCCCC[C@H](O)/C=C/[C@H]1C(SC[C@@H](NC(=O)CC[C@@H](N)C(=O)O)C(=O)NCC(=O)O)CC(=O)[C@H]1C/C=C\CCCC(=O)O` (stereo partly drawn), the Km result in data set [1] was “substrate [Km=0.8-1uM]”.

As for `CCCCC[C@H](O)/C=C/[C@H]1C=CC(=O)[C@@H]1CCCCCCC(=O)O` [PROSTAGLANDIN A1], the activity at 10 µM in data set [2] worked out at 15%.

As to `CCCCC[C@H](O)/C=C/[C@H]1C=CC(=O)[C@@H]1C/C=C\CCCC(=O)O` [PROSTAGLANDIN A2], the Activity in data set [3] is recorded as 9%.
